Data published in PMC5882164, “A novel calcimimetic agent, evocalcet (MT-4580/KHK7580), suppresses the parathyroid cell function with little effect on the gastrointestinal tract or CYP isozymes in vivo and in vitro” (PLoS ONE, 2018).
Where a name gives a salt, the structure may show the parent alone.

Key:
[1] = rats; no reference given; cited from earlier work
human CaR = target: T1, human CaR (Homo sapiens, UniProt P41180); assay: Agonistic activity studies with HEK293 cells stably expressing human CaR (cytoplasmic Ca2+ concentration); assay type: cell-based; conditions: hCaR-HEK293 cells
T1 construct: expressed in transfected cells
T1 sequence (P41180 20-1078): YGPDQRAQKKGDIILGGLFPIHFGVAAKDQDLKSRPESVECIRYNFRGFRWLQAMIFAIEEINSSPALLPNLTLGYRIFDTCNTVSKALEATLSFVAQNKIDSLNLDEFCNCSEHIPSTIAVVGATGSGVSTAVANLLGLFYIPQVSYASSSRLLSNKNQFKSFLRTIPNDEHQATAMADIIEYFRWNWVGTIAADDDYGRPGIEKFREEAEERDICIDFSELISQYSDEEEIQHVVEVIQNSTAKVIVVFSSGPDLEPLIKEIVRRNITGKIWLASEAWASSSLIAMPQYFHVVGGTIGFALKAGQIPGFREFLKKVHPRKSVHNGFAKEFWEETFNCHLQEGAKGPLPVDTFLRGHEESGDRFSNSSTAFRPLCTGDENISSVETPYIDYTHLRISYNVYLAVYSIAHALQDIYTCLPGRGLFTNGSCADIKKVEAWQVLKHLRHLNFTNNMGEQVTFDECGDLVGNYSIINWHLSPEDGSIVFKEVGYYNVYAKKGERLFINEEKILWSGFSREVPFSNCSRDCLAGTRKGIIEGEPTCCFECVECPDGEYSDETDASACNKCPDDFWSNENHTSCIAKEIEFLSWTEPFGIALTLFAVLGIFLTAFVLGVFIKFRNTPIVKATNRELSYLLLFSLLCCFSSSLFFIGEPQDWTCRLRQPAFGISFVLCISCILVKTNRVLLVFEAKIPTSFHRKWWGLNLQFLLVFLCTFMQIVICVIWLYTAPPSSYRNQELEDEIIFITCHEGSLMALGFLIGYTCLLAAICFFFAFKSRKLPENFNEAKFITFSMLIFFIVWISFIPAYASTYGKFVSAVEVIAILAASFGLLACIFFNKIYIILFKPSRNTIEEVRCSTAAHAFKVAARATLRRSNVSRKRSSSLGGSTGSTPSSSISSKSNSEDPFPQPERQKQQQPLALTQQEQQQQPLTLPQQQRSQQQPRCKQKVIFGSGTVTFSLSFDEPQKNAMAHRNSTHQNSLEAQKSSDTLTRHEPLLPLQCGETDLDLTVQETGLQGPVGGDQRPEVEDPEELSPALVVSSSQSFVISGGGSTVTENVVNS
Protocol: HEK 293 cell is obtained from Summit Pharmaceuticals International Corporation (ATCC® Number: CRL-1573^TM). The HindIII-XhoI fragment of the human CaR cDNA was subcloned into the mammalian expression vector pcDNA3.1/Hygro (+) (Invitrogen) containing the hygromycin resistance gene as a selectable marker. This plasmid was transfected into HEK 293 cells by lipofection. The transfected cells were grown in DMEM containing 10% fetal bovine serum and hygromycin B ([…]) in 96 well plate. Hygromycin-resistant colonies were subcloned and assayed for hCaR mRNA by quantitative RT-PCR. The stably transfected cell line was then selected and used for agonistic activity studies.
Evocalcet was dissolved in dimethyl sulfoxide (DMSO) and diluted with HEPES buffer for the preparation of cells. Evocalcet solutions (3~30000 nM, 9-point concentrations) were added to a 96-well plate, and a suspension of HEK293 cells stably transfected with the human CaR was then seeded onto the plate. The ratio with the fluorescence intensity was determined continuously with a multi-label plate reader. To evaluate the agonistic activity pattern of evocalcet, calcium solutions in each concentration were added after the addition of evocalcet solutions to the plate.
The transient changes in the cytoplasmic calcium concentration (Δ[Ca^2+]i) induced by receptor activation were measured. (A) The effect of evocalcet on the Δ[Ca^2+]i value in hCaR-HEK293 cells. (B) The effect of evocalcet on the response rates elicited by increasing the extracellular calcium level in hCaR-HEK293 cells. The response rate was calculated using the following formula: Responserate(%)=Δ[Ca^2+]i/MaxΔ[Ca^2+]i×100 Δ[Ca^2+]i: Subtraction of basal [Ca^2+]i from maximum [Ca^2+]i observed after addition of evocalcet; Max Δ[Ca^2+]i: Δ[Ca^2+]i at the maximum Ca concentration (3 mmol/L).

C[C@@H](NCCCc1cccc(C(F)(F)F)c1)c1cccc2ccccc12 [cinacalcet, Cinacalcet hydrochloride, reference compound]
bioavailability [1]: 1%-2%

C[C@@H](N[C@H]1CCN(c2ccc(CC(=O)O)cc2)C1)c1cccc2ccccc12 [evocalcet]
Δ[Ca^2+]i (human CaR; evocalcet 3 nmol/L): 1.94 nmol/L
Δ[Ca^2+]i (human CaR; evocalcet 10 nmol/L): 6.18 nmol/L
Response rate (human CaR; evocalcet 20 nmol/L, Ca concentration 0.25 mmol/L): 0%
Response rate (human CaR; evocalcet 20 nmol/L, Ca concentration 0.3 mmol/L): 0%
Response rate (human CaR; evocalcet 20 nmol/L, Ca concentration 0.6 mmol/L): 0.26%
Response rate (human CaR; evocalcet 20 nmol/L, Ca concentration 0.9 mmol/L): 4.69%
Response rate (human CaR; evocalcet 20 nmol/L, Ca concentration 1.2 mmol/L): 16.07%
Response rate (human CaR; evocalcet 20 nmol/L, Ca concentration 1.5 mmol/L): 33.31%
Response rate (human CaR; evocalcet 20 nmol/L, Ca concentration 1.8 mmol/L): 52.75%
Response rate (human CaR; evocalcet 20 nmol/L, Ca concentration 2.1 mmol/L): 70.47%
Response rate (human CaR; evocalcet 20 nmol/L, Ca concentration 2.4 mmol/L): 84.37%
Response rate (human CaR; evocalcet 20 nmol/L, Ca concentration 2.7 mmol/L): 94.54%
Response rate (human CaR; evocalcet 20 nmol/L, Ca concentration 3.0 mmol/L (maximum, reference)): 100%
Δ[Ca^2+]i (human CaR; evocalcet 30 nmol/L): 17.71 nmol/L
Response rate (human CaR; evocalcet 60 nmol/L, Ca concentration 0.25 mmol/L): 0%
Response rate (human CaR; evocalcet 60 nmol/L, Ca concentration 0.3 mmol/L): 0%
Response rate (human CaR; evocalcet 60 nmol/L, Ca concentration 0.6 mmol/L): 3.76%
Response rate (human CaR; evocalcet 60 nmol/L, Ca concentration 0.9 mmol/L): 16.86%
Response rate (human CaR; evocalcet 60 nmol/L, Ca concentration 1.2 mmol/L): 33.15%
Response rate (human CaR; evocalcet 60 nmol/L, Ca concentration 1.5 mmol/L): 53.86%
Response rate (human CaR; evocalcet 60 nmol/L, Ca concentration 1.8 mmol/L): 70.14%
Response rate (human CaR; evocalcet 60 nmol/L, Ca concentration 2.1 mmol/L): 81.77%
Response rate (human CaR; evocalcet 60 nmol/L, Ca concentration 2.4 mmol/L): 88.98%
Response rate (human CaR; evocalcet 60 nmol/L, Ca concentration 2.7 mmol/L): 92.99%
Response rate (human CaR; evocalcet 60 nmol/L, Ca concentration 3.0 mmol/L (maximum, reference)): 100%
Δ[Ca^2+]i (human CaR; evocalcet 100 nmol/L): 50.62 nmol/L
Δ[Ca^2+]i (human CaR; evocalcet 300 nmol/L): 71.35 nmol/L
Δ[Ca^2+]i (human CaR; evocalcet 1000 nmol/L): 70.70 nmol/L
Δ[Ca^2+]i (human CaR; evocalcet 3000 nmol/L): 75.59 nmol/L
Δ[Ca^2+]i (human CaR; evocalcet 10000 nmol/L): 78.61 nmol/L
Δ[Ca^2+]i (human CaR; evocalcet 30000 nmol/L): 77.66 nmol/L
EC50 (human CaR; read-out: EC50 for [Ca^2+]i): 92.7 nM
